The nature of data set [1]: Intrinsic clearance in rat microsomes. In kind it is ADME, Microsome.
Data set [2] can be described thus: Intrinsic clearance in human microsomes. Format: ADME, Microsome.
A short description of data set [3]: Inhibition of PI3K/AKT/mTOR in human lung fibroblasts assessed as reduction in AKT phosphorylation at serine473 residue preincubated for 1 hr followed by PDGF-BB stimulation and measured after 10 mins by electrochemiluminescence method.
Data set [4] is described as follows: Intrinsic clearance in human hepatocytes. Format: ADME, cell-based, Hepatocyte.
Data set [5] can be described thus: Lipophilicity, logP of the compound by reversed phase column chromatography. Format: physicochemical.
Data set [6] in a line: Intrinsic clearance in rat hepatocytes. Format: ADME, cell-based, Hepatocyte.
Data set [7] in a line: Inhibition of ligand binding to mTORC1/mTORC2 in human HuT78 cells after 2 hrs by kinobead competition binding assay. In kind it is cell-based.
A short description of data set [8]: Kinetic solubility of the compound in pH 7.4 phosphate buffered saline measured after 1 hr. In kind it is physicochemical. The following applies: read-out: Kinetic_solubility.
Data set [9] has as its target T1, Phosphatidylinositol 4,5-bisphosphate 3-kinase catalytic subunit delta isoform (Homo sapiens, UniProt O00329).
T1 sequence (O00329 whole entry): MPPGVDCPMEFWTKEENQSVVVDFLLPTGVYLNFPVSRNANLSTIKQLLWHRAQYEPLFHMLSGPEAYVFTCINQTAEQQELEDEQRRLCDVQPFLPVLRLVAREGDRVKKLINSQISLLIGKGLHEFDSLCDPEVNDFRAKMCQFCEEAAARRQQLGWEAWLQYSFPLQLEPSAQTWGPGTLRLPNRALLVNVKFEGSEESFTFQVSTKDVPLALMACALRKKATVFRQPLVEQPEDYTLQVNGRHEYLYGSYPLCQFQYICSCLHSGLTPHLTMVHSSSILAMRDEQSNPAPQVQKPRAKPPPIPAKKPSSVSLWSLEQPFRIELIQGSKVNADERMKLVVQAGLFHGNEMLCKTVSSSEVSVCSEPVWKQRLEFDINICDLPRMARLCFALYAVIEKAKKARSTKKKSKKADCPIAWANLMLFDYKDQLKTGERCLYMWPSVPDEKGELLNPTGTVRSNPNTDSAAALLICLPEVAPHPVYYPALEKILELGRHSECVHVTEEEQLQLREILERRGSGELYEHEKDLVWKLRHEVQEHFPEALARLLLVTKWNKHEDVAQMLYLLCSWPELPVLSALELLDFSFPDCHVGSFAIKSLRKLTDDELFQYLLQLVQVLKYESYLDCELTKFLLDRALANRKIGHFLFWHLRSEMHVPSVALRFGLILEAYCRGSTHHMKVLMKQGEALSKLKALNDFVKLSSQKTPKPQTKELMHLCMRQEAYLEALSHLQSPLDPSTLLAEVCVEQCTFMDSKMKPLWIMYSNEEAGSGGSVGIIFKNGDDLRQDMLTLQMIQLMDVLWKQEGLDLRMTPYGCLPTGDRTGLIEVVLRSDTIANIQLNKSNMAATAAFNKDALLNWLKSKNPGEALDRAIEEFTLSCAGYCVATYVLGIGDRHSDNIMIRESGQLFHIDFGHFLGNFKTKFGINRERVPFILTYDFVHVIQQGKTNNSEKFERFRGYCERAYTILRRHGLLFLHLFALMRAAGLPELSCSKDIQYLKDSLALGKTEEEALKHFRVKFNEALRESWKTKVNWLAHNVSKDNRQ
As to the kind of experiment: Inhibition of PI3Kdelta (unknown origin) using PIP2 as substrate preincubated for 15 mins followed by substrate addition and measured after 1 hr by HTRF assay. For orientation: TR-FRET usually uses a lanthanide donor and a delayed reading to cut background.

Data set [10] has as its target Phosphatidylinositol 4,5-bisphosphate 3-kinase catalytic subunit alpha isoform (Homo sapiens, UniProt P42336).
Description: Inhibition of PI3Kalpha (unknown origin) using PIP2 as substrate preincubated for 15 mins followed by substrate addition and measured after 1 hr by HTRF assay

≈ marks a conversion by molar mass, not a printed value.

Sequence of Phosphatidylinositol 4,5-bisphosphate 3-kinase catalytic subunit alpha isoform (P42336 whole entry, canonical isoform): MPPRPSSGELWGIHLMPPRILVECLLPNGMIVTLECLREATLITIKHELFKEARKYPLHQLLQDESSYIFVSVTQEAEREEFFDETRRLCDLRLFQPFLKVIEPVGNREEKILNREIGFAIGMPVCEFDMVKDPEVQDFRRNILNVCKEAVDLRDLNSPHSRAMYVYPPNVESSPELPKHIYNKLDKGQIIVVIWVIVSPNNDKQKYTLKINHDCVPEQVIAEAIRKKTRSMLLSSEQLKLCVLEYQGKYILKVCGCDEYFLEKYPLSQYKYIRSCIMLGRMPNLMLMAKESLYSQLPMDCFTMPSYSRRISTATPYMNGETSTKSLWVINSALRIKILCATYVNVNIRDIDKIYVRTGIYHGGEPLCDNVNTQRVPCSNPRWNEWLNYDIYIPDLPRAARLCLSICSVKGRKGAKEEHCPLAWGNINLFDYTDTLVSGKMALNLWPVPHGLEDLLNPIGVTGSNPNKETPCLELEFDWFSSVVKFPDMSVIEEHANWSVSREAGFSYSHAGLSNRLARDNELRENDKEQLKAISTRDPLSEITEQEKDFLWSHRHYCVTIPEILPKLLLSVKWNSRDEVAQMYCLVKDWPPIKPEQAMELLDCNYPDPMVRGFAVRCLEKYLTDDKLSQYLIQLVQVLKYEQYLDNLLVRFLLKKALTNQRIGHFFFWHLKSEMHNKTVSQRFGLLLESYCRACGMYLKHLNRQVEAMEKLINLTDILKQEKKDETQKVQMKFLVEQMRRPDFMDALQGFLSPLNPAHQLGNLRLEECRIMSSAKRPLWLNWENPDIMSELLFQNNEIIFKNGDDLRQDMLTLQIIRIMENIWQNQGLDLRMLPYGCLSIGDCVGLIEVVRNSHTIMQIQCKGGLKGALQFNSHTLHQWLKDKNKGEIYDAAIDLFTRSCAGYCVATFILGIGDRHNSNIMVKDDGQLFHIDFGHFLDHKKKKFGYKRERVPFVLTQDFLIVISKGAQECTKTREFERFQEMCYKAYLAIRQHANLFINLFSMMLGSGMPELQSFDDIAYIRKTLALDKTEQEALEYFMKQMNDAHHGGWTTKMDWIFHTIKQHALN

As usually defined, the IC50 is the midpoint of a concentration-inhibition curve. As usually defined, the logP is the decadic logarithm of the partition coefficient of the neutral form, usually between octanol and water. A low value points to lower lipophilicity. As a reminder, the pIC50 is −log10 of the IC50, conventionally taken in molar units. Low values mean a high IC50, high ones a low IC50. Take `C[C@H]1COCCN1c1cc(C(C)(C)S(C)(=O)=O)nc(-c2ccc(NC(=S)NCCO)cc2)n1`: the CL in data set [1] was determined as 0.8 mL/min/g; in data set [2] it was 0.9 mL/min/g. In data set [3], the IC50 is 0.0398 µM. Further, the CLH turned out to be 0.9 mL/min/g in data set [4] and 2.8 mL/min/g in [6]. The compound further showed a logP in [5] of 3.6. Further, the pIC50 in [7] is 8.4.
Regarding `CNCC(=O)Nc1ccc(-c2nc(N3CCOC[C@@H]3C)cc(C(C)(C)S(C)(=O)=O)n2)cc1`, the solubility kinetic at 1 h in [8] turned out to be 198 µg/mL (≈ 429 µM). Further, the IC50 is 0.0501 µM in data set [3], 1.58 µM in [9] and 15.8 µM in [10]. This compound also displayed a logP in [5] of 4.1. In [7], the pIC50 is on record as 8.
Turning to `CC(C)(c1cc([C@]23CCOC[C@H]2C3)nc(-c2ccc(NC(=S)NCCO)cc2)n1)S(C)(=O)=O`, the CL was 1.4 mL/min/g in [1] and 3.1 mL/min/g in [2]. For the same compound, in [8], the solubility kinetic at 1 h was 173 µg/mL (≈ 353 µM). Also, the values for the IC50 in [3], in [9] and in data set [10] were 0.0316 µM, 31.6 µM and 25.1 µM, respectively. Besides, the CLH in [4] came out at 5.1 mL/min/g; in [6], 13 mL/min/g. Besides, the logP in data set [5] was determined as 3.9. Moreover, the pIC50 in [7] is given as 8.6.
With `CNCC(=O)Nc1ccc(-c2nc(C(C)(C)S(C)(=O)=O)cc([C@@]34CCOC[C@@H]3C4)n2)cc1`, in data set [8], the solubility kinetic at 1 h was 257 µg/mL (≈ 560 µM). Further, the IC50 in [3] was 0.158 µM; in [9], 1.26 µM; in data set [10] it was 25.1 µM. The compound further gave a logP in data set [5] of 4.3. In data set [7], this compound returned a pIC50 of 7.3.
With `CNCC(=O)Nc1ccc(-c2nc(CS(C)(=O)=O)cc(N3CCOC[C@@H]3C)n2)cc1`, in data set [8], the solubility kinetic at 1 h is 90 µg/mL (≈ 208 µM). Also, the 50% inhibitory concentration (IC50) in data set [3] is 0.501 µM; in data set [9], 12.6 µM; in data set [10], 25.1 µM. In [5], this compound yielded a log partition coefficient (logP) of 2.6. For the same compound, the pIC50 in [7] stood at 7.7.
As for `CCNC(=O)Nc1ccc(-c2nccc([C@]34CCOC[C@H]3C4)n2)cc1`, the CL in [1] is 13.6 mL/min/g; in data set [2], 1.5 mL/min/g. For the same compound, the solubility kinetic at 1 h in [8] was determined as 125 µg/mL (≈ 369 µM). Further, the IC50 is 2 µM in [3], 25.1 µM in data set [9] and 25.1 µM in data set [10]. In data set [5], this compound came in with a logP of 3.9. In data set [7], the pIC50 came to 6.1.
Regarding `CCNC(=O)Nc1ccc(-c2nccc(N3CCOC[C@@H]3C)n2)cc1`, the CL in [1] came to 2 mL/min/g; in data set [2], 1.2 mL/min/g. Besides, in data set [8], the solubility kinetic at 1 h amounted to 136 µg/mL (≈ 398 µM). In addition, the IC50 in data set [3] is 1.26 µM; in [9] it was 5.01 µM; in data set [10], 6.31 µM. Moreover, in [5], the logP was found to be 3.4. Further, the pIC50 in data set [7] stood at 6.1.
For the compound `CCNC(=O)Nc1ccc(-c2nccc([C@@]34CCOC[C@@H]3C4)n2)cc1`, the CL was found to be 16.7 mL/min/g in data set [1] and 1.4 mL/min/g in data set [2]. Moreover, the solubility kinetic at 1 h in data set [8] stood at 127 µg/mL (≈ 375 µM). In addition, the IC50 in data set [3] was 3.16 µM; in [9] it was 25.1 µM; in data set [10] it was above 31.6 µM. This compound yielded a logP in data set [5] of 3.9. Further, in data set [7], the pIC50 is 5.5.
For `CC(C)(c1cc([C@@]23CCOC[C@@H]2C3)nc(-c2ccc(NC(=S)NCCO)cc2)n1)S(C)(=O)=O`, in [8], the solubility kinetic at 1 h worked out at 145 µg/mL (≈ 296 µM). The 50% inhibitory concentration (IC50) in [3] was 0.0794 µM; in data set [9] it was 25.1 µM; in data set [10] it was 7.94 µM. In data set [5], this compound came in with a logP of 3.9. The negative logarithm of the IC50 (pIC50) in [7] came to 8.2.
`CNCC(=O)Nc1ccc(-c2nc(CS(C)(=O)=O)cc([C@@]34CCOC[C@@H]3C4)n2)cc1`: the solubility kinetic at 1 h in data set [8] turned out to be 167 µg/mL (≈ 388 µM). For the same compound, the IC50 in data set [3] is 1.26 µM; in [9], 15.8 µM; in [10], above 31.6 µM. The compound also yielded a logP in data set [5] of 3.1. Further, the negative-log IC50 (pIC50) in data set [7] came out at 7.1.
For `CNCC(=O)Nc1ccc(-c2nc(CS(C)(=O)=O)cc([C@]34CCOC[C@H]3C4)n2)cc1`, in [8], the solubility kinetic at 1 h worked out at 158 µg/mL (≈ 367 µM). Moreover, the figures for the IC50 in data set [3], in [9] and in data set [10] were 0.794 µM, above 31.6 µM and above 31.6 µM, respectively. Besides, the logP in data set [5] was 3.1. The negative-log IC50 (pIC50) in data set [7] is given as 7.4.
As for `CNCC(=O)Nc1ccc(-c2nc(C(C)(C)S(C)(=O)=O)cc([C@]34CCOC[C@H]3C4)n2)cc1`, the solubility kinetic at 1 h in data set [8] stood at 217 µg/mL (≈ 473 µM). Further, the results for the IC50 in data set [3], in [9] and in data set [10] were 0.1 µM, 12.6 µM and above 31.6 µM, respectively. For the same compound, the lipophilicity (logP) in [5] came to 4.3. The pIC50 in data set [7] stood at 7.6.

Values taken from ChEMBL document CHEMBL4311944, “Discovery of 3-Oxabicyclo[4.1.0]heptane, a Non-nitrogen Containing Morpholine Isostere, and Its Application in Novel Inhibitors of the PI3K-AKT-mTOR Pathway” (J Med Chem, 2019).
